“And” between values parts separate entries of the source, which are not always exact repeats. Equal entries are not always repeated. Inconclusive results and toxic doses are left out. The calls were made as follows: active = survival T/C of 150% or more; inactive = T/C below 125% in these data.
System: CD2F1 mice, L1210 leukemia ip, survival T/C
Assay: NCI In Vivo Anticancer Drug Screen. Data for tumor model L1210 Leukemia (intraperitoneal) in CD2F1 (CDF1) mice
Details: higher = longer survival
Summary of the method: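 Tumor-bearing mice (transplanted tumor) were split into treated and vehicle control groups, and the measured endpoint of each treated group was divided by that of its vehicle controls.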

[1] = endpoint: mean survival time, dose: 100.0 mg/kg/injection, schedule: Q04DX003 (ip), vehicle: saline with Tween-80
[2] = endpoint: mean survival time, dose: 200.0 mg/kg/injection, schedule: Q04DX003 (ip), vehicle: saline with Tween-80
[3] = endpoint: mean survival time, dose: 400.0 mg/kg/injection, schedule: Q04DX003 (ip), vehicle: saline with Tween-80

Measured: T/C

C=C1C(=O)OC2/C=C(\C)CC(O)/C=C(/CO)CC(OC(=O)/C(C)=C/C)C12 (stereo not drawn)
inactive: endpoint: median survival time, dose: 15.0 mg/kg/injection, schedule: Q01DX009 (ip), vehicle: saline 103 % of control | endpoint: median survival time, dose: 30.0 mg/kg/injection, schedule: Q01DX009 (ip), vehicle: saline 108 % of control | endpoint: median survival time, dose: 60.0 mg/kg/injection, schedule: Q01DX009 (ip), vehicle: saline 105 % of control | endpoint: median survival time, dose: 120.0 mg/kg/injection, schedule: Q01DX009 (ip), vehicle: saline 95 % of control

Oc1cccc(O)c1
inactive: endpoint: mean survival time, dose: 50.0 mg/kg/injection, schedule: Q01DX009 (ip), vehicle: saline 98 % of control | endpoint: mean survival time, dose: 100.0 mg/kg/injection, schedule: Q01DX009 (ip), vehicle: saline 95 % of control | endpoint: mean survival time, dose: 200.0 mg/kg/injection, schedule: Q01DX009 (ip), vehicle: saline 101 % of control

ClC(Cl)c1c2c(cc3c1CCCC3)CCCC2
inactive: endpoint: mean survival time, dose: 100.0 mg/kg/injection, schedule: Q01DX009 (ip), vehicle: saline with Tween-80 113 % of control | endpoint: mean survival time, dose: 200.0 mg/kg/injection, schedule: Q01DX009 (ip), vehicle: saline with Tween-80 116 % of control | endpoint: mean survival time, dose: 400.0 mg/kg/injection, schedule: Q01DX009 (ip), vehicle: saline with Tween-80 102 % of control

CC(C)(C)C(CCC(=O)O)CC(=O)O (stereo not drawn)
inactive: [1] 97 % of control | [2] 96 % of control | [3] 100 % of control

CN1CCC(c2ccccc2)(c2ccccc2)OC1c1ccccc1 (stereo not drawn)
inactive: [1] 101 % of control | [2] 100 % of control | [3] 94 % of control

CN(C)C1CC2C=CC1C1C=CC21 (stereo not drawn)
inactive: endpoint: mean survival time, dose: 6.25 mg/kg/injection, schedule: Q01DX009 (ip), vehicle: water 100 % of control | endpoint: mean survival time, dose: 12.5 mg/kg/injection, schedule: Q01DX009 (ip), vehicle: water 97 % of control | endpoint: mean survival time, dose: 25.0 mg/kg/injection, schedule: Q01DX009 (ip), vehicle: water 101 % of control | endpoint: mean survival time, dose: 50.0 mg/kg/injection, schedule: Q01DX009 (ip), vehicle: water 103 % of control

O=C(NCCS)Nc1ccccc1
inactive: endpoint: mean survival time, dose: 100.0 mg/kg/injection, schedule: Q01DX001 (ip), vehicle: saline with Tween-80 102 % of control | endpoint: mean survival time, dose: 100.0 mg/kg/injection, schedule: Q04DX002 (ip), vehicle: saline with Tween-80 104 % of control | [1] 94 % of control | endpoint: mean survival time, dose: 200.0 mg/kg/injection, schedule: Q01DX001 (ip), vehicle: saline with Tween-80 98 % of control | endpoint: mean survival time, dose: 200.0 mg/kg/injection, schedule: Q04DX002 (ip), vehicle: saline with Tween-80 96 % of control | [2] 86 % of control and 91 % of control | endpoint: mean survival time, dose: 400.0 mg/kg/injection, schedule: Q04DX002 (ip), vehicle: saline with Tween-80 96 % of control | [3] 86 % of control and 92 % of control
